# In patent publication US12473304B2, “Heterocyclic PAD4 inhibitors” (BRISTOL-MYERS SQUIBB COMPANY, priority 2020, dated 2025):
# Biological target: human PAD4 (hPAD4) (Homo sapiens (Human), UniProt Q9UM07)
# Assay: RFMS Human PAD4 Functional Assay 1
# Format: biochemical
# Details: RFMS assay 1; 5 nM hPAD4, 250 μM BAEE substrate, 50 μM calcium, 37° C.
# Experimental: RFMS Human PAD4 Functional Assay 1:
# Compounds were solubilized in 100% DMSO to achieve all) mM compound concentration. Compound stock solutions were stored at RT. A series of dilutions were prepared in DMSO and mixed 8 times with 20 μL mixing volume. Final top concentration of compound in the assay is 50 μM. Final assay conditions were as follows: • Reaction volume: 26 μl • Assay buffer: 25 mM hepes, pH 7.5, 5 mM NaCl, 1 mM DTT, 0.2 mg/ml BSA, 0.01% CHAPS, 50 μM Calcium, and 5 μM TPEN • Final concentrations: 5 nM hPAD4 enzyme, 250 μM BASE, and 0.5% DMSO • Total incubation time: 30 mins compound and enzyme preincubation at 37° C., 90 min enzyme/substrate reaction, 30 min reaction with phenyl glyoxal at 37° C. • Stop solution: 40 μl 5% TCA in ACN
# 0.13 μL of compound solution was added to 13 μL of 10 nM PAD4 in assay buffer. After 30 min 13 μl of 500 μM of BAEE was added in 25 mM hepes, pH 7.5, 5 mM NaCl, 1 mM DTT, 0.2 mg/ml BSA, 0.01% CHAPS, 50 μM Calcium, 5 μM TPEN was added and the reaction incubated for 90 min at 37° C. The enzymatic reaction was quenched by addition of 15 μl of 6.1N TCA, 100% Final Concentration is 20%, 35 μl of 8.5 mM phenyl glyoxal (final concentration 4 mM) is then added and the reaction is incubated for 30 min at 37° C.
# After 30 minutes the plates are spun down to remove all precipitate. The enzyme reaction was quenched with an equal volume of methanol containing internal standard (modified citrulline). Samples were loaded onto the Rapid Fire RF300 system (Agilent) wherein they were first sipped for 1000 ms and then directly loaded to a C18 separations cartridge using a mixture of acetonitrile containing 0.01% formic acid for 3000 ms desalting. The flow rate of the mobile phase was 1.5 ml/min. Once the samples were eluted from the cartridge, a mobile phase of acetonitrile containing 0.01% formic acid was used to move the samples into the mass spectrometer for 4000 ms at a flow rate of 1.25 ml/min/Sciex API5500 triple quadrupole mass spectrometer (Applied Biosystems) equipped with ESI was used to analyze the peptidyl citrulline and internal standard ions.
# MRM transition of product and internal standard were monitored at m/z 424.5 to 350.4 and m/z 293 to 247 respectively. The dwell time for each transition was set at 200 ms, and the ESI voltage was used at 5500 with a source temperature of 400° C. Extracted ion peaks for each transition were integrated using the Rapid Fire Integrator software. Peak area of analyte was normalized with internal standard.).
# Chain of human PAD4 (hPAD4) (Q9UM07 whole entry): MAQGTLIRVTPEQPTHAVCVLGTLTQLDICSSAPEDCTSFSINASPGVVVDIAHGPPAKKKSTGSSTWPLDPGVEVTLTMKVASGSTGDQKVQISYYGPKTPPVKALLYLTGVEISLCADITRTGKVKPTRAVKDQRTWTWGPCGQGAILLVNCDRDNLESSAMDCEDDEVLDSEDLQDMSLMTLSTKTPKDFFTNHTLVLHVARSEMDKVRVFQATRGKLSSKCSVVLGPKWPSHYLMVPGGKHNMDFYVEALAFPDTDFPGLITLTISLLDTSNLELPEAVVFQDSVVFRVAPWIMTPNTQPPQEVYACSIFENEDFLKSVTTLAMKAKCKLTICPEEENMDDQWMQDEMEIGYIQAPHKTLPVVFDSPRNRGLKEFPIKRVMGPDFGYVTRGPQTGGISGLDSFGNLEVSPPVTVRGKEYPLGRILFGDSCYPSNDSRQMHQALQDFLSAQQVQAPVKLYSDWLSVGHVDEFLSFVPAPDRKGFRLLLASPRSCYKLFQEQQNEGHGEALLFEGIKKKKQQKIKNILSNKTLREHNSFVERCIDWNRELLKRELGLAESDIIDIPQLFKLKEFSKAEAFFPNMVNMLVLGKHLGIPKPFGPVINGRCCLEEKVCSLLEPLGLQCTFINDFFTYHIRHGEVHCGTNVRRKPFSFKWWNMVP
row,IC50,SMILES
1,0.02 µM,"Cc1c(-c2cc3cccc(C4CCN(C(=O)C5CC(O)C5)CC4)c3n2CC2CC2)nn2cc(C(=O)N3CC4CCC3[C@@H]4N)ccc12 (mixture of isomers) [Example 467, (4-(2-(6-((7R)-7-amino-2-azabicyclo[2.2.1]heptane-2-carbonyl)-3-methylpyrazolo[1,5-a]pyridin-2-yl)-1-(cyclopropylmethyl)-1H-indol-7-yl)piperidin-1-yl)(3-hydroxycyclobutyl)methanone]"
2,0.13 µM,"Cc1c(-c2cc3cc(F)cc(C4CCN(C(=O)C5CC(O)C5)CC4)c3n2CC2CC2)nn2cc(C(=O)N3CCC[C@@H](N)C3)ccc12 (mixture of isomers) [Example 492, (R)-(3-Aminopiperidin-1-yl)(2-(1-(cyclopropylmethyl)-5-fluoro-7-(1-(3-hydroxycyclobutane-1-carbonyl)piperidin-4-yl)-1H-indol-2-yl)-3-methylpyrazolo[1,5-a]pyridin-6-yl)methanone]"
3,0.02 µM,"Cc1c(-c2cc3cc(F)cc(C4CCN(C(=O)C5CC(O)C5)CC4)c3n2CC2CC2)nn2cc(C(=O)N3C[C@H](N)C[C@@H](F)C3)ccc12 (mixture of isomers) [Example 496, ((3R,5R)-3-Amino-5-fluoropiperidin-1-yl)(2-(1-(cyclopropylmethyl)-5-fluoro-7-(1-(3-hydroxycyclobutane-1-carbonyl)piperidin-4-yl)-1H-indol-2-yl)-3-methylpyrazolo[1,5-a]pyridin-6-yl)methanone]"
4,0.06 µM,"Cc1c(-c2cc3cc(F)cc(C4CCN(C(=O)C5CC(O)(C(F)(F)F)C5)CC4)c3n2CC2CC2)nn2cc(C(=O)N3C[C@H](N)C[C@@H](F)C3)ccc12 (mixture of isomers) [Example 505, ((3R,5R)-3-Amino-5-fluoropiperidin-1-yl)(2-(1-(cyclopropylmethyl)-5-fluoro-7-(1-(3-hydroxy-3-(trifluoromethyl)cyclobutane-1-carbonyl)piperidin-4-yl)-1H-indol-2-yl)-3-methylpyrazolo[1,5-a]pyridin-6-yl)methanone]"
5,0.04 µM,"Cc1c(-c2cc3cc(F)cc(C4CCN(C(=O)C5CCCCO5)CC4)c3n2CC2CC2)nn2cc(C(=O)N3CCC[C@@H](N)C3)ccc12 (mixture of isomers) [Example 508, ((R)-3-Aminopiperidin-1-yl)(2-(1-(cyclopropylmethyl)-5-fluoro-7-(1-(tetrahydro-2H-pyran-2-carbonyl)piperidin-4-yl)-1H-indol-2-yl)-3-methylpyrazolo[1,5-a]pyridin-6-yl)methanone]"
6,0.35 µM,"Cc1c(-c2cc3cc(F)cc(C4CCN(C(=O)C5CCCCO5)CC4)c3n2CC2CC2)nn2cc(C(=O)N3C[C@H](N)C[C@@H](F)C3)ccc12 (mixture of isomers) [Example 509, ((3R,5R)-3-Amino-5-fluoropiperidin-1-yl)(2-(1-(cyclopropylmethyl)-5-fluoro-7-(1-(tetrahydro-2H-pyran-2-carbonyl)piperidin-4-yl)-1H-indol-2-yl)-3-methylpyrazolo[1,5-a]pyridin-6-yl)methanone]"
7,0.06 µM,"COc1cc(C(=O)N2CCC[C@@H](N)C2)cn2nc(-c3cc4cccc(C5CN(C(=O)C6CC(O)(C(F)(F)F)C6)C5)c4n3CC3CC3)c(C)c12 (mixture of isomers) [Example 515, (R)-(3-Aminopiperidin-1-yl)(2-(1-(cyclopropylmethyl)-7-(1-(3-hydroxy-3-(trifluoromethyl)cyclobutane-1-carbonyl)azetidin-3-yl)-1H-indol-2-yl)-4-methoxy-3-methylpyrazolo[1,5-a]pyridin-6-yl)methanone]"
8,0.07 µM,"Cc1c(-c2cc3cccc(C4CN(C(=O)C5CC(O)(C(F)(F)F)C5)C4)c3n2CC2CC2)nn2cc(C(=O)N3CCC[C@@H](N)C3)ccc12 (mixture of isomers) [Example 535, (R)-(3-Aminopiperidin-1-yl)(2-(1-(cyclopropylmethyl)-7-(1-(3-hydroxy-3-(trifluoromethyl)cyclobutane-1-carbonyl)azetidin-3-yl)-1H-indol-2-yl)-3-methylpyrazolo[1,5-a]pyridin-6-yl)methanone]"
9,1.07 µM,"Cc1c(-c2cc3cccc(C4CN(C(=O)C5CCCCO5)C4)c3n2CC2CC2)nn2cc(C(=O)N3C[C@H](N)C[C@@H](F)C3)ccc12 (mixture of isomers) [Example 544, ((3R,5R)-3-Amino-5-fluoropiperidin-1-yl)(2-(1-(cyclopropylmethyl)-7-(1-(tetrahydro-2H-pyran-2-carbonyl)azetidin-3-yl)-1H-indol-2-yl)-3-methylpyrazolo[1,5-a]pyridin-6-yl)methanone]"
10,0.26 µM,"Cc1c(-c2cc3cccc(C4CN(C(=O)C5CCCCO5)C4)c3n2CC2CC2)nn2cc(C(=O)N3CCC[C@@H](N)C3)ccc12 (mixture of isomers) [Example 545, ((R)-3-Aminopiperidin-1-yl)(2-(1-(cyclopropylmethyl)-7-(1-(tetrahydro-2H-pyran-2-carbonyl)azetidin-3-yl)-1H-indol-2-yl)-3-methylpyrazolo[1,5-a]pyridin-6-yl)methanone]"
11,0.01 µM,"COc1cc(C(=O)N2CC3CCC2[C@@H]3N)cn2nc(-c3cc4ccnc(OCC5CNC(=O)C5)c4n3CC3CC3)c(C)c12 (mixture of isomers) [Example 608, 4-(((2-(6-((7R)-7-Amino-2-azabicyclo[2.2.1]heptane-2-carbonyl)-4-methoxy-3-methylpyrazolo[1,5-a]pyridin-2-yl)-1-(cyclopropylmethyl)-1H-pyrrolo[2,3-c]pyridin-7-yl)oxy)methyl)pyrrolidin-2-one (mixture of diastereomers)]"
12,0.208 µM,"Cc1c(-c2cc3ccc(C(C)(O)C(F)(F)F)nc3n2CC2CC2)nn2cc(C(=O)N3C[C@H](N)C[C@@H](F)C3)ccc12 (single isomer, unassigned) [Example 106]"
13,0.24 µM,"Cc1c(-c2cc3ccc(C(C)(O)C(F)(F)F)nc3n2CC2CC2)nn2cc(C(=O)N3C[C@H](N)C[C@@H](F)C3)ccc12 (single isomer, unassigned) [Example 107]"
14,0.08 µM,"COc1cc(C(=O)N2CCC[C@@H](N)C2)cn2nc(-c3cc4cccc(C5CCN(C(=O)C6CCCCO6)CC5)c4n3CC3CC3)c(C)c12 (single isomer, unassigned) [Example 386]"
15,0.23 µM,"COc1cc(C(=O)N2CCC[C@@H](N)C2)cn2nc(-c3cc4cccc(C5CCN(C(=O)C6CCCCO6)CC5)c4n3CC3CC3)c(C)c12 (single isomer, unassigned) [Example 387]"
16,0.07 µM,"COc1cc(C(=O)N2C[C@H](N)C[C@@H](F)C2)cn2nc(-c3cc4cccc(C5CCN(C(=O)C6CCCCO6)CC5)c4n3CC3CC3)c(C)c12 (single isomer, unassigned) [Example 388]"
17,0.03 µM,"COc1cc(C(=O)N2C[C@H](N)C[C@@H](F)C2)cn2nc(-c3cc4cccc(C5CCN(C(=O)C6CCCCO6)CC5)c4n3CC3CC3)c(C)c12 (single isomer, unassigned) [Example 389]"
18,0.005 µM,"COc1cc(C(=O)N2C[C@H](N)C[C@@H](F)C2)cn2nc(-c3cc4cccc(C5CCN(C(=O)C6CC(O)C6)CC5)c4n3CC3CC3)c(C)c12 (single isomer, unassigned) [Example 390]"
19,0.003 µM,"COc1cc(C(=O)N2CCC[C@@H](N)C2)cn2nc(-c3cc4cccc(C5CCN(C(=O)C6CC(O)C6)CC5)c4n3CC3CC3)c(C)c12 (single isomer, unassigned) [Example 392]"
20,0.25 µM,"COc1cc(C(=O)N2C[C@H](N)C[C@@H](F)C2)cn2nc(-c3cc4cccc(C5CCN(C(=O)C6CC(O)C6)CC5)c4n3CC3CC3)c(C)c12 (single isomer, unassigned) [Example 393]"
21,0.01 µM,"COc1cc(C(=O)N2C[C@H](N)C[C@@H](F)C2)cn2nc(-c3cc4cccc(C5CCN(C(=O)C6CCCO6)CC5)c4n3CC3CC3)c(C)c12 (single isomer, unassigned) [Example 394]"
22,0.11 µM,"COc1cc(C(=O)N2CCC[C@@H](N)C2)cn2nc(-c3cc4cccc(C5CCN(C(=O)C6CC(O)C6)CC5)c4n3CC3CC3)c(C)c12 (single isomer, unassigned) [Example 396]"
23,0.04 µM,"COc1cc(C(=O)N2C[C@H](N)C[C@@H](F)C2)cn2nc(-c3cc4cccc(C5CCN(C(=O)C6CCCO6)CC5)c4n3CC3CC3)c(C)c12 (single isomer, unassigned) [Example 397]"
24,0.25 µM,"Cc1c(-c2cc3cc(F)cc(C4CCN(C(=O)C5CCCO5)CC4)c3n2CC2CC2)nn2cc(C(=O)N3CCC[C@@H](N)C3)ccc12 (single isomer, unassigned) [Example 488]"
